PubChem BioAssay (NCI)
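Cells were grown in 96-well plates and exposed to each compound for 48 hours at five concentrations; endpoints were interpolated linearly between bracketing concentrations, or set to the highest concentration if not reached. TGI is the concentration that stops growth completely.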

Tests used:
Experiment in all cases: NCI anticancer screen, dose series, 48 h
[1] = tested on: 786-0 renal
[2] = tested on: A498 renal
[3] = tested on: A549 NSCLC
[4] = tested on: ACHN renal
[5] = tested on: BT-549 breast
[6] = tested on: CAKI-1 renal
[7] = tested on: CCRF-CEM leukemia
[8] = tested on: COLO 205 colon
[9] = tested on: DU-145 prostate
[10] = tested on: EKVX NSCLC
[11] = tested on: HCT-116 colon
[12] = tested on: HCT-15 colon
[13] = tested on: HL-60(TB) leukemia
[14] = tested on: HOP-62 NSCLC
[15] = tested on: HS 578T breast
[16] = tested on: HT29 colon
[17] = tested on: IGROV1 ovarian
[18] = tested on: K-562 leukemia
[19] = tested on: KM12 colon
[20] = tested on: LOX IMVI melanoma
[21] = tested on: M14 melanoma
[22] = tested on: MALME-3M melanoma
[23] = tested on: MCF7 breast
[24] = tested on: MDA-MB-231 breast
[25] = tested on: MDA-MB-435
[26] = tested on: MDA-N
[27] = tested on: MOLT-4 leukemia
[28] = tested on: NCI-H226 lung
[29] = tested on: NCI-H23 lung
[30] = tested on: NCI-H522 lung
[31] = tested on: NCI/ADR-RES ovarian
[32] = tested on: OVCAR-5 ovarian
[33] = tested on: OVCAR-8 ovarian
[34] = tested on: PC-3 prostate
[35] = tested on: RPMI-8226 leukemia
[36] = tested on: RXF 393 renal
[37] = tested on: SF-268 CNS
[38] = tested on: SF-295 CNS
[39] = tested on: SF-539 CNS
[40] = tested on: SK-MEL-2 melanoma
[41] = tested on: SK-MEL-28 melanoma
[42] = tested on: SK-MEL-5 melanoma
[43] = tested on: SK-OV-3 ovarian
[44] = tested on: SN12C renal
[45] = tested on: SNB-19 CNS
[46] = tested on: SNB-75 CNS
[47] = tested on: SR leukemia
[48] = tested on: SW-620 colon
[49] = tested on: T-47D breast
[50] = tested on: TK-10 renal
[51] = tested on: U251 CNS
[52] = tested on: UACC-257 melanoma
[53] = tested on: UACC-62 melanoma
[54] = tested on: UO-31 renal
[55] = tested on: HCC-2998 colon
[56] = tested on: HOP-92 NSCLC
[57] = tested on: NCI-H460 lung
[58] = tested on: OVCAR-3 ovarian
[59] = tested on: OVCAR-4 ovarian

Measured: TGI

COc1ccc2c(c1)C1OCCNC1CC2 (configuration not stated)
not listed: [55] | [56] | [57] | [58] | [59]
> 100 µM: all other assays above

Cc1cc(S(=O)(=O)NC2=NC(c3ccccc3)c3cc(Cl)ccc3N2)c(S)cc1Cl (configuration not stated)
83.7 µM: [54]
not listed: [40]
> 100 µM: all other assays above

O=S1(=O)NC2CCC3NS(=O)(=O)NC4CCC(N1)N4S(=O)(=O)N23 (configuration not stated)
not listed: [7] | [27]
> 100 µM: all other assays above

COc1ccc(CNC(C)C(=O)O)cc1 (configuration not stated)
65.5 µM: [7]
not listed: [55]
> 100 µM: all other assays above
